In US5462926A (Biomeasure, Inc., priority 1993, dated 1995):
Where a SMILES comes first, the peptide text is derived from it. Bridges are numbered along the chain shown (N, C = ends). [ ]: non-standard residue; d: D form. 2Nal = N[C@@H](Cc1ccc2ccccc2c1)C(=O)O; d2Nal = N[C@H](Cc1ccc2ccccc2c1)C(=O)O

Key:
Format in all cases: binding
CCKA receptors = biological target: T1, CCKA receptors (Rattus norvegicus, UniProt P30551); experiment: CCKA receptor assay, 125I-CCK-8, rat pancreatic membranes
T1 construct: rat pancreas (CCKA receptor assay); from tissue; host or cells: rat pancreas membranes

endothelinA = biological target: T2, endothelinA (Rattus norvegicus, UniProt P26684); experiment: EtA membrane receptor assay, A10 smooth muscle cells; details: 1 μM
T2 construct: A10 smooth muscle cells (EtA membrane receptor assay); endogenous in cells; host or cells: A10 smooth muscle cells (membranes)

bradykinin1 = experiment: Bradykinin membrane receptor assay, [3H]bradykinin; details: 1 μM
α1-adrenergic receptor = experiment: α1-adrenergic membrane receptor assay, rat cerebral cortex; details: 1 μM
dopamine2 receptor = biological target: T3, dopamine2 receptor (Rattus norvegicus, UniProt P61169); experiment: Dopamine2 membrane receptor assay, rat corpus striatum; details: 1 μM
T3 construct: rat corpus striatum (dopamine1 and dopamine2 membrane receptor assays); from tissue; host or cells: rat corpus striatum membranes

histamine H1 receptor = biological target: T4, histamine H1 receptor (Cavia porcellus, UniProt P31389); experiment: Histamine H1 membrane receptor assay, guinea pig cerebral; details: 1 μM
T4 construct: guinea pig cerebral (N1, histamine H1, and sigma opioid membrane receptor assays); from tissue; host or cells: guinea pig cerebral membranes

adenosine1 receptor = biological target: T5, adenosine1 receptor (Rattus norvegicus, UniProt P25099); experiment: Adenosine membrane receptor assay, rat cerebral cortex; details: 1 μM
T5 construct: rat cerebral cortex (CCKB, PYY, neurotensin, α1 -adrenergic, α2 -adrenergic, muscarinic cholinergic, neural benzodiazepine, peripheral benzodiazepine, adenosine,; from tissue; host or cells: rat cerebral cortex membranes

[1] = biological target: T6, N-methyl D-aspartate receptors (Rattus norvegicus, UniProt P35439); experiment: N-methyl-D-aspartate membrane receptor assay, rat cerebral cortex; details: 1 μM
T6 construct: from tissue; host or cells: rat cerebral cortex membranes

T1 sequence (P30551 whole entry): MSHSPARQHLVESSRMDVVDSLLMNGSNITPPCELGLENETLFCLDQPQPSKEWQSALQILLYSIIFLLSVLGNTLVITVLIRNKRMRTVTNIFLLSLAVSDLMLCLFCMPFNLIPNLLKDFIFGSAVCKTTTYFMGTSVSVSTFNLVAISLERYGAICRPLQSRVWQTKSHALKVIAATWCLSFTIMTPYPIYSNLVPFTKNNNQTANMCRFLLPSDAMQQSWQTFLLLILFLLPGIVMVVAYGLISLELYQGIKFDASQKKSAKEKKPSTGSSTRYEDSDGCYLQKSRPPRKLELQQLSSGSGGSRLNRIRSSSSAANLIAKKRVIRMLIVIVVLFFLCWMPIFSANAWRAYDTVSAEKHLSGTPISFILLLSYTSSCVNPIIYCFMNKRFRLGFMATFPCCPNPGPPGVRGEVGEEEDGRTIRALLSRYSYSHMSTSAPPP
T5 sequence (P25099 whole entry): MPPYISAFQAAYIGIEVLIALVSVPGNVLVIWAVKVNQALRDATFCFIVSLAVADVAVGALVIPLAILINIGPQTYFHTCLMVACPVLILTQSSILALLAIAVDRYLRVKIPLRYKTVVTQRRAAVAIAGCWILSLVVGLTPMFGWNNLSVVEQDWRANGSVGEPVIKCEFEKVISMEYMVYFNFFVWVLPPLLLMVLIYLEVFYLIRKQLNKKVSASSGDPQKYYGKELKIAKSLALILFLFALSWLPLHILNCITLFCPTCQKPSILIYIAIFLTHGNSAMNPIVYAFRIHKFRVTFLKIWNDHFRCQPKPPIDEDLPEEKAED
T2 sequence (P26684 21-426): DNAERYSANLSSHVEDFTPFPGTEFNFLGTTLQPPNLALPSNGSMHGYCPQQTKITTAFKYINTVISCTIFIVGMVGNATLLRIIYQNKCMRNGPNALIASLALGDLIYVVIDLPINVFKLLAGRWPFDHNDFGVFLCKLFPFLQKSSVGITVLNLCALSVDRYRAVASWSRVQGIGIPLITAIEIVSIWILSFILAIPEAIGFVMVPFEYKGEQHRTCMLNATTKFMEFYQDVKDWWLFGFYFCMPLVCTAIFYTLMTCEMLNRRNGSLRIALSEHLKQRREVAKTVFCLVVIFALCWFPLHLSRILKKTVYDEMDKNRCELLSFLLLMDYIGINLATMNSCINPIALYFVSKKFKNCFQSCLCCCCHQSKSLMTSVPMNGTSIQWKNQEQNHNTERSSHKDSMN
T3 sequence (P61169 whole entry): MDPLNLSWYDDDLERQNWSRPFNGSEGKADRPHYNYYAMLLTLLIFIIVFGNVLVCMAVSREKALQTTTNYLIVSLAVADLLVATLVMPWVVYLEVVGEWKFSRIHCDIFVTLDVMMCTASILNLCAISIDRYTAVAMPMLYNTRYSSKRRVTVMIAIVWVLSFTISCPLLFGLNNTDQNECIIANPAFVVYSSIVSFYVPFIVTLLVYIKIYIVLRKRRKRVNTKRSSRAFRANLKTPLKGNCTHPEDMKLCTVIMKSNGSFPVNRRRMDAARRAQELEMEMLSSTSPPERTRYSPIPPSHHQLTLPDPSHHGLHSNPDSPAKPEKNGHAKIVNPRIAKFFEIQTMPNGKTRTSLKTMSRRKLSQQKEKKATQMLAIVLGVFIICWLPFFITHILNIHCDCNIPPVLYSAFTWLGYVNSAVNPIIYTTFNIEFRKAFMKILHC
T4 sequence (P31389 whole entry): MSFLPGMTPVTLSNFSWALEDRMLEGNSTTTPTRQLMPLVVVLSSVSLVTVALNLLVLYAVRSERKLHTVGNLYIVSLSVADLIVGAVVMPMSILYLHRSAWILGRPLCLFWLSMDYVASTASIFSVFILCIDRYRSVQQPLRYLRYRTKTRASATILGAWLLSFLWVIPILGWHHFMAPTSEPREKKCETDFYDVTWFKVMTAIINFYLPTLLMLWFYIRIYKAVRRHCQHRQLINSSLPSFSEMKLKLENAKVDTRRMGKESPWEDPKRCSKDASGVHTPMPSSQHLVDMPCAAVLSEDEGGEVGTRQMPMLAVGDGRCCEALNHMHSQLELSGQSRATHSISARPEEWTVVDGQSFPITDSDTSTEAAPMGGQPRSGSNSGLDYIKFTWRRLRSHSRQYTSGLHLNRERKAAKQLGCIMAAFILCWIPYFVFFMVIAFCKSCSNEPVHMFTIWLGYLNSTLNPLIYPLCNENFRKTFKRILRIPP

CC(C)[C@@H]1NC(=O)[C@H](CCCCN)NC(=O)[C@@H](Cc2c[nH]c3ccccc23)NC(=O)[C@H](Cc2ccc(O)cc2)NC(=O)[C@@H](NC(=O)[C@H](N)Cc2ccc3ccccc3c2)CSSC[C@@H](C(=O)N[C@@H](Cc2ccc3ccccc3c2)C(N)=O)NC1=O [Analog #1, H2 -D-Nal-Cys-Tyr-D-Trp-Lys-Val-Cys-Nal-NH2] (H-[d2Nal]CY[dW]KVC[2Nal]-NH2; disulfide 2-7)
inhibition of binding to CCKA receptors (CCKA receptors; 1 μM): did not inhibit binding
Ki (CCKA receptors; rat pancreatic membranes, read-out: affinity, inhibition of 125I-CCK-8 binding to CCKA receptors): 5.537 ± 0.007 µM
inhibition of binding to endothelinA receptors (endothelinA): did not inhibit binding
inhibition of binding to bradykinin1 receptors (bradykinin1): did not inhibit binding
inhibition of binding to α1-adrenergic receptors (α1-adrenergic receptor): did not inhibit binding
inhibition of binding to dopamine2 receptors (dopamine2 receptor): did not inhibit binding
inhibition of binding to histamine H1 receptors (histamine H1 receptor): did not inhibit binding
inhibition of binding to adenosine1 receptors (adenosine1 receptor): did not inhibit binding
inhibition of binding to N-methyl D-aspartate receptors [1]: did not inhibit binding
